Measured values: US10640545B2 (THE GOVERNORS OF THE UNIVERSITY OF ALBERTA, priority 2017, dated 2020)
*1 amine or outer side, *2 acyl side, *3 side chain or, on linkers, in order; H or OH if unused. Where a SMILES comes first, the peptide text is derived from it. [ ]: non-standard residue; d: D form. Phe(4-Br) = N[C@@H](Cc1ccc(Br)cc1)C(=O)O; X1 = N=C(N)NCCCN(N[*:1])C(=O)[*:2]; azaLeu = CC(C)CN(N[*:1])C(=O)[*:2]; Nle = CCCC[C@H](N)C(=O)O; Aib = CC(C)(N)C(=O)O

Tests used:
[1] = target: T1, wild-type rat apelin receptor (Rattus norvegicus, UniProt Q9JHG3); experiment: Radioligand binding, displacement of [125I]-pyr-1-apelin-13 on CHO cell membranes; conditions: for receptor binding affinity (in words): rat apelin receptor
T1 construct: expressed in transfected cells
T1 sequence (Q9JHG3 1-377): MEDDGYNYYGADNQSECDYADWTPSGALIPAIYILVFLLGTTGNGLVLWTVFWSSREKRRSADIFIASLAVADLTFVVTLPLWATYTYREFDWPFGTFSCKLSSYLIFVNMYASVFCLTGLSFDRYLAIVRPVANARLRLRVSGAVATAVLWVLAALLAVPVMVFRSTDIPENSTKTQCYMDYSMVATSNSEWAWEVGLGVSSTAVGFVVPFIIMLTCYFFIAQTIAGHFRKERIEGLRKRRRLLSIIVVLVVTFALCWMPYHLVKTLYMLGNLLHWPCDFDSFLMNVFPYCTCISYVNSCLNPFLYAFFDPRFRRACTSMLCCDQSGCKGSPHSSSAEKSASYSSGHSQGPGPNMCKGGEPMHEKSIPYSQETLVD
Experimental: This experiment evaluated the ability of peptides of the present embodiments to bind to the wild-type rat apelin receptor, in order to examine the impact of synthetic modification within the critical RPRL motif of the apelin peptides.
Membrane preparations from CHO cells stably expressing the wild-type rat apelin receptor-EGFP were prepared as previously described (Gerbier et al., New Structural Insights Into The Apelin Receptor: Identification Of Key Residues For Apelin binding; FASEB J. 2015, 29, 314-322; Iturrioz et. al., Development Of Original Metabolically-Stable Apelin-17 Peptides With Diuretic And Cardiovascular Effects; FASEB J. 2017, 31, 687-700.) Crude membrane preparations (1 μg total mass of membranes/assay) were incubated for 3 h at 20° C. with 0.2 nM [^125I]-pyr-1-apelin-13 (monoiodinated on Lys^8 with Bolton-Hunter reagent, Perkin Elmer, Wellesley, Mass., USA) in binding buffer (50 mM HEPES, 5 mM MgCl2 1149 pH 7.5, BSA 1%) alone or in presence of the different compounds at various concentrations. The reaction was stopped by adding 4 mL of cold binding buffer, filtered on Whatman GF/C filters and washed with 5 mL of cold binding buffer. Radioactivity was then counted using a Wizard 1470 Wallac gamma counter (Perkin Elmer, Turku, Finland). Binding experiment data were analyzed with Graph Pad Prism.

anesthetized mice = experiment: Blood pressure assay in anesthetized mice; assay type: in vivo; conditions: 1.4 μM/kg body weight injected, SBP, DBP, MABP
Experimental: Synthetic peptides 8-19 were tested for blood pressure lowering abilities in anesthetized mice. Apelin peptides were injected through […], monitoring blood pressure (BP) and heart rate (HR) over 60 minutes.
Mice were anaesthetized with 1.5% isoflurane/oxygen, and body temperature was monitored and maintained at 36° C. by a heating pad. The aorta was cannulated via the right carotid artery using a PV loop catheter (Model 1.2F from Scisense, Transonic) in order to continuously record arterial blood pressure and heart rate (LabScribe 2.0, Scisense). […] Results are reported as systolic blood pressure (SBP), diastolic blood pressure (DBP), mean arterial blood pressure (MABP) and heart rate (HR).
Apelin peptides 11, 56-59 as well as the KLKB1-cleavage fragments 54 and 55 were tested for blood pressure lowering abilities in anesthetized mice.
Mice were anesthetized with 1.5% isoflurane/oxygen, and body temperature was monitored and maintained at 36° C. by a heating pad. The aorta was cannulated via the right carotid artery using a PV loop catheter (model 1.2F from Scisense, Transonic) in order to continuously record arterial blood pressure and heart rate (LabScribe 2.0, Scisense). Compounds 11, and 54-59 or 55-59 (1.4 μM/kg body weight) or the same volume of saline was injected via the right jugular vein. Results are reported as systolic blood pressure (SBP), diastolic blood pressure (DBP), mean arterial blood pressure (MABP), and heart rate (HR) shown in FIGS. 15A-D.
Apelin peptides were delivered systemically via the right internal jugular vein while blood pressure (BP) and heart rate (HR) were continuously monitored in the aorta cannulated via the right carotid artery. All N-terminally extended apelin peptides, except 58, show pronounced and time-stable blood pressure lowering effects (FIGS. 15a-d). […] This correlates with the results obtained from the Ca^2+ mobilization assay.

isolated rat hearts = experiment: Langendorff isolated heart, ischemia-reperfusion injury; conditions: ex vivo heart, 30 min ischemia; for ability to rescue the heart from ischemic reperfusion injury: peptide at start of reperfusion for 10 min at 1 pM; for max/min dP/dt, LVDP and RPP compared to native isoform 2: reperfusion
Experimental: The ex vivo heart was assessed for a variety of parameters (heart rate (HR); left ventricle developed pressure (LVDP); maximum derivative of change in systolic pressure over time (max dP/dt); minimum derivative of change in diastolic pressure over time (min dP/dt); and rate-pressure product (RPP)) indicative of general heart function and performance (FIG. 11).
Langendorff heart perfusion and ischemia-reperfusion injury were prepared and cardiac function was measured. Mice were heparinized and anaesthetized with 1.5-2% isoflurane inhalation. The heart was excised, mounted on a Langendorff system, and perfused at a consistent pressure of 80 mmHg with modified Krebs-Henseleit solution (116 mM NaCl, 3.2 mM KCl, 2.0 mM CaCl2), 1.2 mM MgSO4, 25 mM NaHCO3, 1.2 mM KH2PO4, 11 mM glucose, 0.5 mM EDTA and 2 mM pyruvate), which was kept at 37° C. and continuously oxygenated with 95% O2 and 5% CO2 which maintained the perfusion buffer at pH 7.4. After stabilization and 10 min baseline recording, global ischemia was induced for 30 min followed by 40 min of reperfusion. Apelin 17 (2) or apelin peptides (11, 17, 18, or 19) were given at the start of reperfusion for 10 min at a concentration of 1 pM. Left ventricular functions were obtained continuously by PowerLab system (ADInstruments, Australia). Data was reported as mean value of every 5 min. Left ventricular functions were reported as: Left Ventricular Developed Pressure (LVDP); Heart rate (HR); maximum derivative of change in systolic pressure over time (max dP/dt); minimum derivative of change in diastolic pressure over time (min dP/dt); and Rate Pressure Product (RPP).

in vitro = conditions: human, plasma
NEP = NEP (Homo sapiens, UniProt P08473); experiment: Neprilysin inhibition assay (degradation of 1 after preincubation with peptide); assay type: biochemical; design: purchased Sino Biological; conditions: preincubation of NEP with equimolar peptide
NEP, sequence (P08473 whole entry): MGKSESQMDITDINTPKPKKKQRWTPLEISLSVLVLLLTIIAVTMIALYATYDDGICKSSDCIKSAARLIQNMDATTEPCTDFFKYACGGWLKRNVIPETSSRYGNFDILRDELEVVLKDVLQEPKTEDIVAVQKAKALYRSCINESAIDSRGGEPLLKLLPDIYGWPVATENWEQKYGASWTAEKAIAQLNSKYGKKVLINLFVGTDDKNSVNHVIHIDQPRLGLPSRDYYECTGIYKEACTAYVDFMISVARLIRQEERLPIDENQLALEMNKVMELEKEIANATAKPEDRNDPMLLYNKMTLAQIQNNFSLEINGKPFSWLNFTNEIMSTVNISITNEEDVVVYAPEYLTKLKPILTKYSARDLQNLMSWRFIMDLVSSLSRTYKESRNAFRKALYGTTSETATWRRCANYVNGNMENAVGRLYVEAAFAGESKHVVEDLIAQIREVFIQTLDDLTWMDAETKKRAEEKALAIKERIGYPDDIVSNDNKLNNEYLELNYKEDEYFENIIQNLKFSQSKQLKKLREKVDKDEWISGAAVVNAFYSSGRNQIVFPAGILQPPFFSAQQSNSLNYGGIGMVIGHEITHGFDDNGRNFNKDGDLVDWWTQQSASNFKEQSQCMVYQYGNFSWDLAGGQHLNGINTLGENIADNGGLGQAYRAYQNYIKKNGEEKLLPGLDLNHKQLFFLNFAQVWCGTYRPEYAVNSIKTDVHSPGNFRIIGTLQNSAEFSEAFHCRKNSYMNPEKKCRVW
Experimental: This experiment investigates the ability of synthetic peptides 8-19 to inhibit the inherent proteolytic activity of NEP.
Assays were performed in duplicate (n=2) for each time point.

SMILES | Ki ([1]; displacement of [125I]-pyr-1-apelin-13 (0.2 nM), CHO membranes, rat apelin receptor-EGFP, means ± SE, read-out: Affinity Ki) [nM] | receptor binding affinity (in words) [1] | blood pressure lowering (hypotensive) effect (anesthetized mice) | ability to rescue the heart from ischemic reperfusion injury (isolated rat hearts) | max/min dP/dt, LVDP and RPP compared to native isoform 2 (isolated rat hearts) | remaining at 0.5 h, 80 µM (in vitro) [%] | remaining at 1 h, 80 µM (in vitro) [%] | inhibition of the proteolytic activity of NEP (NEP)
CCCC[C@H](NC(=O)[C@@H]1CCCN1C(=O)CNC(=O)[C@H](CCCCN)NC(=O)[C@H](Cc1c[nH]cn1)NC(=O)[C@H](CO)NC(=O)[C@H](CC(C)C)NC(=O)N(CCCNC(=N)N)NC(=O)[C@@H]1CCCN1C(=O)[C@H](CCCNC(=N)N)NC(=O)[C@H](CCC(N)=O)NC(=O)[C@H](CCCNC(=N)N)NC(=O)[C@H](CCCNC(=N)N)NC(=O)[C@H](Cc1ccccc1)NC(=O)[C@@H](N)CCCCN)C(=O)NC(C)(C)C(=O)N[C@@H](Cc1ccc(Br)cc1)C(=O)O [Peptide 17, Lys-Phe-Arg-Arg-Gln-Arg-Pro-azaArg-Leu-Ser-His-Lys-Gly-Pro-Nle-Aib-paraBrPhe] (H-KFRRQRP[X1]LSHKGP[Nle][Aib][Phe(4-Br)]-OH; N-terminus and C-terminus assumed) | 0.14 ± 0.009 | sub-nanomolar receptor affinities | potent hypotensive activity that rivaled or bested that of native 2 or A2 variant 5 | equivalent ability to rescue the heart from ischemic reperfusion injury compared to native isoform 2 | behaving very analogously to 2 | 96 ± 6 | 94 ± 3 | no ability to inhibit the inherent activity of NEP
CCCC[C@H](NC(=O)[C@@H]1CCCN1C(=O)CNC(=O)[C@H](CCCCN)NC(=O)[C@H](Cc1c[nH]cn1)NC(=O)[C@H](CO)NC(=O)N(CC(C)C)NC(=O)[C@H](CCCNC(=N)N)NC(=O)[C@@H]1CCCN1C(=O)[C@H](CCCNC(=N)N)NC(=O)[C@H](CCC(N)=O)NC(=O)[C@H](CCCNC(=N)N)NC(=O)[C@H](CCCNC(=N)N)NC(=O)[C@H](Cc1ccccc1)NC(=O)[C@@H](N)CCCCN)C(=O)NC(C)(C)C(=O)N[C@@H](Cc1ccc(Br)cc1)C(=O)O [Peptide 19] (H-KFRRQRPR[azaLeu]SHKGP[Nle][Aib][Phe(4-Br)]-OH; N-terminus and C-terminus assumed) | – | sub-nanomolar receptor affinities | potent hypotensive activity that rivaled or bested that of native 2 or A2 variant 5 | equivalent ability to rescue the heart from ischemic reperfusion injury compared to native isoform 2 | slight improvement over the native isoform | 82 ± 1 | 68 ± 4 | no ability to inhibit the inherent activity of NEP
